Where two headings read alike, the source gives them in different places.

Our source for the IC50 and AC50 values is patent publication US20230159496A1, “COMPOUNDS AND METHODS FOR MODULATING SPLICING” (REMIX THERAPEUTICS INC., priority 2020, published 2023).

Format in all cases: cell-based
The subject of experiment [1] is SMN2 CJ mRNA. Put plainly: Gene panel canonical junction qPCR assay, SMN2. To be noted: decrease in CJ mRNA levels, gene panel; read-out: SMN2 IC50. How it is done: (§1) The expression of a target mRNA was measured by detecting the formation of an exon-exon junction in the canonical transcript (CJ). A compound mediated exon-inclusion event was detected by observing an increase in formation of a new junction with an alternative exon (AJ). Real-time qPCR assays were used to detect these splicing switches and interrogate the potency of various compounds towards different target genes. A high-throughput real time quantitative PCR (RT-qPCR) assay was developed to measure these two isoforms of the mRNA (CJ and AJ) for an exemplary gene, HTT, together with a control housekeeping gene, GAPDH or GUSB or PPIA, used for normalization. Briefly, the A673 or K562 cell line was treated with various compounds described herein (e.g., compounds of Formula (I)). After treatment, the levels of the HTT mRNA targets were determined from each sample of cell lysate by cDNA synthesis followed by qPCR. The A673 cell line was cultured in DMEM with 10% FBS. Cells were diluted with full growth media and plated in a 96-well plate (15,000 cells in 100 ul media per well). The plate was incubated at 37° C. with 5% CO2 for 24 hours to allow cells to adhere. An 11-point 3-fold serial dilution of the compounds was made in DMSO then diluted in media in an intermediate plate. Compounds were transferred from the intermediate plate to the cell plate with the top dose at a final concentration of 10 uM in the well. Final DMSO concentration was kept at or below 0.25%. The cell plate was returned to the incubator at 37° C. with 5% CO2 for an additional 24 hours. The K562 cell line was cultured in IMDM with 10% FBS. For K562, cells were diluted with full growth media and plated in either a 96-well plate (50,000 cells in 50 uL media per well) or a 384-well plate (8,000-40,000 cells in 45 uL media per well). An 11-point 3-fold serial dilution of the compounds were made in DMSO then diluted in media in an intermediate plate. Compound was transferred from the intermediate plate to the cell plate with the top dose at a final concentration of 10 uM in the well. Final DMSO concentration was kept at or below 0.25%. Final volume was 100 uL for 96-well plate and 50 uL for 384-well plate. The cell plate was then placed in an incubator at 37° C. with 5% CO2 for 24 hours. The cells were then gently washed with 50 uL-100 uL cold PBS before proceeding to addition of lysis buffer. 30 uL-50 uL of room temperature lysis buffer with DNAse I (and optionally RNAsin) was added to each well. Cells were shaken/mixed thoroughly at room temperature for 5-10 minutes for lysis to take place and then 3 uL-5 uL of room temperature stop solution was added and wells were shaken/mixed again. After 2-5 minutes, the cell lysate plate was transferred to ice for RT-qPCR reaction setup. The lysates could also be frozen at −80° C. for later use. In some cases, a direct lysis buffer was used. An appropriate volume of 3× lysis buffer (10 mM Tris, 150 mM NaCl, 1.5%-2.5% Igepal and 0.1-1 U/uL RNAsin, pH 7.4) was directly added to either K562 or A673 cells in media and mixed by pipetting 3 times. The plates were then incubated at room temperature with shaking/rocking for 20-50 minutes to allow for lysis to take place. After this time, the cell lysate plate was transferred to ice to set up for the RT-qPCR reactions. The lysates could also be frozen at −80° C. for later use. To set up 10 uL RT-qPCR reactions, cell lysates were transferred to 384-well qPCR plates containing the master mix according to the table below. The plates were sealed, gently vortexed, and spun down before the run. The volumes were adjusted accordingly in some instances where the reaction was carried in 20 uL. The table below summarizes the components of the RT-qPCR reactions: The RT-qPCR reaction was performed using a QuantStudio (ThermoFisher) under the following fast cycling conditions. All samples and standards were analyzed at least in duplicate.

Experiment [2] concerns Target C CJ mRNA. Put plainly: Gene panel canonical junction qPCR assay, Target C. The note with it: decrease in CJ mRNA levels, gene panel; read-out: Target C IC50. Here is the method: as §1
In experiment [3] the test system is HTT CJ mRNA. In words: Gene panel canonical junction qPCR assay, HTT. The note with it: decrease in CJ mRNA levels, gene panel; read-out: HTT IC50. How it is done:
as §1

The subject of experiment [4] is HTT mRNA. Put plainly: Splicing assay (RT-qPCR) monitoring HTT canonical junction (CJ) and alternative junction (AJ) mRNA isoforms. The note with it: A673 or K562 cells, 24 h treatment, top dose 10 uM. How it is done:
Compounds described herein were used to modulate RNA transcript abundance in cells. The expression of a target mRNA was measured by detecting the formation of an exon-exon junction in the canonical transcript (CJ). A compound mediated exon-inclusion event was detected by observing an increase in formation of a new junction with an alternative exon (AJ). Real-time qPCR assays were used to detect these splicing switches and interrogate the potency of various compounds towards different target genes. A high-throughput real time quantitative PCR (RT-qPCR) assay was developed to measure these two isoforms of the mRNA (CJ and AJ) for an exemplary gene, HTT, together with a control housekeeping gene, GAPDH or GUSB or PPIA, used for normalization. Briefly, the A673 or K562 cell line was treated with various compounds described herein (e.g., compounds of Formula (I)). After treatment, the levels of the HTT mRNA targets were determined from each sample of cell lysate by cDNA synthesis followed by qPCR.
• Cells-to-CT 1-step kit: ThermoFisher A25602, Cells-to-CT lysis reagent: ThermoFisher 4391851C, TaqMan™ Fast Virus 1-Step Master Mix: ThermoFisher 4444436 • GAPDH: VIC-PL, ThermoFisher 4326317E (Assay: Hs99999905_m1)—used for K562/suspension cell lines • GUSB: VIC-PL, ThermoFisher 4326320E (Assay: Hs99999908_m1)—used for K562/suspension cell lines • PPIA: VIC-PL, ThermoFisher 4326316E (Assay: Hs99999904_m1) — used for A673/adherent cell lines
The A673 cell line was cultured in DMEM with 10% FBS. Cells were diluted with full growth media and plated in a 96-well plate (15,000 cells in 100 ul media per well). The plate was incubated at 37° C. with 5% CO2 for 24 hours to allow cells to adhere. An 11-point 3-fold serial dilution of the compounds was made in DMSO then diluted in media in an intermediate plate. Compounds were transferred from the intermediate plate to the cell plate with the top dose at a final concentration of 10 uM in the well. Final DMSO concentration was kept at or below 0.25%. The cell plate was returned to the incubator at 37° C. with 5% CO2 for an additional 24 hours.
The K562 cell line was cultured in IMDM with 10% FBS. For K562, cells were diluted with full growth media and plated in either a 96-well plate (50,000 cells in 50 uL media per well) or a 384-well plate (8,000-40,000 cells in 45 uL media per well). An 11-point 3-fold serial dilution of the compounds were made in DMSO then diluted in media in an intermediate plate. Compound was transferred from the intermediate plate to the cell plate with the top dose at a final concentration of 10 uM in the well. Final DMSO concentration was kept at or below 0.25%. Final volume was 100 uL for 96-well plate and 50 uL for 384-well plate. The cell plate was then placed in an incubator at 37° C. with 5% CO2 for 24 hours.
The cells were then gently washed with 50 uL-100 uL cold PBS before proceeding to addition of lysis buffer. 30 uL-50 uL of room temperature lysis buffer with DNAse I (and optionally RNAsin) was added to each well. Cells were shaken/mixed thoroughly at room temperature for 5-10 minutes for lysis to take place and then 3 uL-5 uL of room temperature stop solution was added and wells were shaken/mixed again. After 2-5 minutes, the cell lysate plate was transferred to ice for RT-qPCR reaction setup. The lysates could also be frozen at −80° C. for later use.
In some cases, a direct lysis buffer was used. An appropriate volume of 3× lysis buffer (10 mM Tris, 150 mM NaCl, 1.5%-2.5% Igepal and 0.1-1 U/uL RNAsin, pH 7.4) was directly added to either K562 or A673 cells in media and mixed by pipetting 3 times. The plates were then incubated at room temperature with shaking/rocking for 20-50 minutes to allow for lysis to take place. After this time, the cell lysate plate was transferred to ice to set up for the RT-qPCR reactions. The lysates could also be frozen at −80° C. for later use. […]

Where [5] appears, read: decrease in CJ mRNA (50% response), read-out: HTT CJ AC50.
Setting [6] is: increase in AJ mRNA (50% response), read-out: HTT AJ AC50.

Regarding `Cc1cn2cc(-c3ccc4c(=O)n(C5CCNCC5)cnc4c3)ncc2n1` [Compound 297], the IC50 is under 0.1 µM in experiment [1], 1 to 10 µM in experiment [2] and 1 to 10 µM in experiment [3]. The AC50 in experiment [4] (setting [5]) and in experiment [4] (setting [6]) was 1 to 10 µM throughout.

For `Cc1cn2cc(-c3ccc4c(=O)n(C5CCN(C)CC5)cnc4c3F)cc(F)c2n1` [Compound 227, 8-fluoro-7-(8-fluoro-2-methylimidazo[1,2-a]pyridin-6-yl)-3-(1-methylpiperidin-4-yl)quinazolin-4(3H)-one], the 50% inhibitory concentration (IC50) in experiment [1] is 0.1 to 1 µM; in experiment [2] it was over 10 µM; in experiment [3] it was 1 to 10 µM. In addition, the AC50 in experiment [4] (setting [5]) and in experiment [4] (setting [6]) was 1 to 10 µM each time.

For the molecule `Cc1cc(-c2nc3ccc(N(C)C4CCN(C)CC4)cc3c(=O)[nH]2)cc2cn(C)nc12` [Compound 239, 2-(2,7-dimethyl-2H-indazol-5-yl)-6-(methyl(1-methylpiperidin-4-yl)amino)quinazolin-4(3H)-one], the IC50 in experiment [1] was 1 to 10 µM; in experiment [2], over 10 µM; in experiment [3], over 10 µM. Moreover, the AC50 in experiment [4] (setting [5]) and in experiment [4] (setting [6]) was over 10 µM throughout.

For the molecule `CN1CCC(Nc2ccc3c(=O)n(-c4ccc5cn(C)nc5c4)cnc3c2)CC1` [Compound 203, 3-(2-methyl-2H-indazol-6-yl)-7-((1-methylpiperidin-4-yl)amino)quinazolin-4(3H)-one], the IC50 in experiment [1], in experiment [2] and in experiment [3] was over 10 µM throughout. The AC50 in experiment [4] (setting [5]) and in experiment [4] (setting [6]) was over 10 µM in each case.

On to `Cc1nc2c(F)cc(-c3ccc4c(=O)n(C5CCN(C)CC5)cnc4c3)cc2o1` [Compound 300], for which the IC50 in experiment [1] was under 0.1 µM; in experiment [2], 1 to 10 µM; in experiment [3], 0.1 to 1 µM. The AC50 in experiment [4] (setting [5]) lay in the range of 0.1 to 1 µM; in experiment [4] (setting [6]) it was 1 to 10 µM.

On to `Cc1cn2nc(-c3ccc4c(=O)n(C5CCNCC5)cnc4c3)nc2c(C)n1` [Compound 287, 7-{6,8-dimethyl-[1,2,4]triazolo[1,5-a]pyrazin-2-yl}-3-(piperidin-4-yl)quinazolin-4-one], for which the IC50 in experiment [1] was under 0.1 µM; in experiment [2], 0.1 to 1 µM; in experiment [3], 0.1 to 1 µM. Besides, the AC50 in experiment [4] (setting [5]) and in experiment [4] (setting [6]) was 0.1 to 1 µM each time.

Turning to `CN1CCC(n2cnc3cc(-c4cc(F)c5nn(C)cc5c4)ccc3c2=O)CC1` [Compound 209, 7-(7-fluoro-2-methyl-2H-indazol-5-yl)-3-(1-methylpiperidin-4-yl)quinazolin-4(3H)-one], the figures for the IC50 in experiment [1], in experiment [2] and in experiment [3] were under 0.1 µM, 1 to 10 µM and 1 to 10 µM, respectively. Besides, the values for the AC50 in experiment [4] (setting [5]) and in experiment [4] (setting [6]) were 1 to 10 µM and 0.1 to 1 µM, respectively.

Take `Cc1cn2cc(-c3ccc4c(c3)CCN(C3CCNCC3)C4=O)cc(C)c2n1` [Compound 217]: the IC50 in experiment [1] is 0.1 to 1 µM; in experiment [2] it was over 10 µM; in experiment [3] it was 1 to 10 µM. Moreover, the AC50 in experiment [4] (setting [5]) and in experiment [4] (setting [6]) was 1 to 10 µM each time.

As to `Cc1cn2nc(-c3ccc4c(=O)n(C5CCNCC5)ncc4c3)cc2c(C)n1` [Compound 260], the IC50 in experiment [1] was 0.1 to 1 µM; in experiment [2], 1 to 10 µM; in experiment [3], 0.1 to 1 µM. Besides, the AC50 in experiment [4] (setting [5]) and in experiment [4] (setting [6]) was 0.1 to 1 µM each time.

Take `CN1CCN(c2ccc3c(=O)n(-c4ccc5cn(C)nc5c4)cnc3c2)CC1` [Compound 178, 3-(2-methyl-2H-indazol-6-yl)-7-(4-methylpiperazin-1-yl)quinazolin-4(3H)-one]: the IC50 in experiment [1], in experiment [2] and in experiment [3] was over 10 µM in each case. Moreover, the half-maximal activity concentration (AC50) in experiment [4] (setting [5]) and in experiment [4] (setting [6]) was over 10 µM in each case.

For `Cc1nc2c(F)cc(-c3ccc4c(=O)n(C5CCNCC5)cnc4c3)cc2o1` [Compound 245], the IC50 is under 0.1 µM in experiment [1], 0.1 to 1 µM in experiment [2] and 0.1 to 1 µM in experiment [3]. In addition, the AC50 in experiment [4] (setting [5]) and in experiment [4] (setting [6]) was 0.1 to 1 µM in each case.

For `CN1CCC(c2ccc3c(=O)n(-c4ccc5nn(C)cc5c4)cnc3c2)CC1` [Compound 177, 3-(2-methyl-2H-indazol-5-yl)-7-(1-methylpiperidin-4-yl)quinazolin-4(3H)-one], the IC50 in experiment [1] was over 10 µM; in experiment [2], 1 to 10 µM; in experiment [3] it was over 10 µM. In addition, the AC50 in experiment [4] (setting [5]) and in experiment [4] (setting [6]) was over 10 µM in each case.
